Measurements as given in patent US10807992B2, “Single enantiomer antiparasitic compounds” (priority 2017, dated 2020).
Read-outs that look alike come from different tables or passages of the source.

Tested on: Aedes aegypti
Experiment: In vitro contact activity against adult mosquitoes (coated vial)
Method: Aedes aegypti (Louisiana Biologicals Inc., New Orleans, La.) eggs were allowed to hatch, close, and age between 3-5 days in an environmental chamber at 26° C., 80% humidity with light/dark cycles.
For mosquito assays, an aliquot from each compound stock was added to an acetone/triton solution to achieve the desired top doses for the study. Serial dilutions were conducted from the top dose (i.e. 50 ppm) to achieve the desired titration range for EC50 and EC90 determination. The final DMSO concentration in each test vial was 0.5%. A 459 μL aliquot of each compound formulation was transferred to a vial and vials were immediately placed on an unheated roller unit to allow for an even coating of the vial walls. The vials were loosely capped and allowed to dry for a minimum of four hours in a chemical fume hood.
For both contact and ingestion assays, five female Aedes aegypti adults were added to each vial or cage. The test vials for contact assays were held in an environmental chamber at 24° C., 80% humidity with light/dark cycles (12 hours each). The cages for mosquito ingestion assays were held in a temperature-controlled artificial feeding apparatus to allow continual access to organic bovine blood containing the desired concentration of compound. Fresh aliquots of compound-spiked bovine blood were provided daily for the duration of the study.
Mosquitoes showing no movement or mosquitoes that were knocked down were noted as dead. Results from trial 1 and trial 2 contact assays are shown in Tables 12 and 13, respectively and the results from trial 3 mosquito ingestion assay is shown in table 14.
For the mosquito contact and ingestion assays, each replicate contained 5 mosquitoes. For ease of calculation, the two replicates were added to equal a total of 10 mosquitoes.

O=C(CC(F)(F)F)N1CC2(C1)OCc1cc(C3=NS[C@](c4cc(Cl)c(F)c(Cl)c4)(C(F)(F)F)C3)ccc12 [C1 (R) enantiomer, (R)-1-[6-[5-(3,5-dichloro-4-fluoro-phenyl)-5-(trifluoromethyl)-4H-isothiazol-3-yl]spiro[1H-isobenzofuran-3,3′-azetidine]-1′-yl]-3,3,3-trifluoro-propan-1-one]
0%: mortality at 0.049 µM (0.5 h, read-out: % Mortality R1 + R2, Trial 1, contact assay, dose 0.049 μM, 0.5 Hr) | mortality at 0.2 µM (0.5 h, read-out: % Mortality R1 + R2, Trial 1, contact assay, dose 0.20 μM, 0.5 Hr) | mortality at 0.78 µM (0.5 h, read-out: % Mortality R1 + R2, Trial 1, contact assay, dose 0.78 μM, 0.5 Hr) | mortality at 3.125 µM (0.5 h, read-out: % Mortality R1 + R2, Trial 1, contact assay, dose 3.125 μM, 0.5 Hr) | mortality at 12.5 µM (0.5 h, read-out: % Mortality R1 + R2, Trial 1, contact assay, dose 12.5 μM, 0.5 Hr) | mortality at 50 µM (0.5 h, read-out: % Mortality R1 + R2, Trial 1, contact assay, dose 50 μM, 0.5 Hr) | mortality at 0.049 µM (0.5 h, read-out: % Mortality R1 + R2, Trial 2, contact assay, dose 0.049 μM, 0.5 Hr) | mortality at 0.2 µM (0.5 h, read-out: % Mortality R1 + R2, Trial 2, contact assay, dose 0.20 μM, 0.5 Hr) | mortality at 0.78 µM (0.5 h, read-out: % Mortality R1 + R2, Trial 2, contact assay, dose 0.78 μM, 0.5 Hr) | mortality at 3.125 µM (0.5 h, read-out: % Mortality R1 + R2, Trial 2, contact assay, dose 3.125 μM, 0.5 Hr) | mortality at 12.5 µM (0.5 h, read-out: % Mortality R1 + R2, Trial 2, contact assay, dose 12.5 μM, 0.5 Hr) | mortality at 50 µM (0.5 h, read-out: % Mortality R1 + R2, Trial 2, contact assay, dose 50 μM, 0.5 Hr) | mortality at 0.049 µM (1 h, read-out: % Mortality R1 + R2, Trial 1, contact assay, dose 0.049 μM, 1 hr) | mortality at 0.2 µM (1 h, read-out: % Mortality R1 + R2, Trial 1, contact assay, dose 0.20 μM, 1 hr) | mortality at 0.78 µM (1 h, read-out: % Mortality R1 + R2, Trial 1, contact assay, dose 0.78 μM, 1 hr) | mortality at 3.125 µM (1 h, read-out: % Mortality R1 + R2, Trial 1, contact assay, dose 3.125 μM, 1 hr) | mortality at 12.5 µM (1 h, read-out: % Mortality R1 + R2, Trial 1, contact assay, dose 12.5 μM, 1 hr) | mortality at 50 µM (1 h, read-out: % Mortality R1 + R2, Trial 1, contact assay, dose 50 μM, 1 hr) | mortality at 0.049 µM (1 h, read-out: % Mortality R1 + R2, Trial 2, contact assay, dose 0.049 μM, 1 hr) | mortality at 0.2 µM (1 h, read-out: % Mortality R1 + R2, Trial 2, contact assay, dose 0.20 μM, 1 hr) | mortality at 0.78 µM (1 h, read-out: % Mortality R1 + R2, Trial 2, contact assay, dose 0.78 μM, 1 hr) | mortality at 3.125 µM (1 h, read-out: % Mortality R1 + R2, Trial 2, contact assay, dose 3.125 μM, 1 hr) | mortality at 12.5 µM (1 h, read-out: % Mortality R1 + R2, Trial 2, contact assay, dose 12.5 μM, 1 hr) | mortality at 50 µM (1 h, read-out: % Mortality R1 + R2, Trial 2, contact assay, dose 50 μM, 1 hr) | mortality at 0.049 µM (6 h, read-out: % Mortality R1 + R2, Trial 1, contact assay, dose 0.049 μM, 6 hr) | mortality at 0.2 µM (6 h, read-out: % Mortality R1 + R2, Trial 1, contact assay, dose 0.20 μM, 6 hr) | mortality at 0.78 µM (6 h, read-out: % Mortality R1 + R2, Trial 1, contact assay, dose 0.78 μM, 6 hr) | mortality at 3.125 µM (6 h, read-out: % Mortality R1 + R2, Trial 1, contact assay, dose 3.125 μM, 6 hr) | mortality at 12.5 µM (6 h, read-out: % Mortality R1 + R2, Trial 1, contact assay, dose 12.5 μM, 6 hr) | mortality at 50 µM (6 h, read-out: % Mortality R1 + R2, Trial 1, contact assay, dose 50 μM, 6 hr) | mortality at 0.049 µM (6 h, read-out: % Mortality R1 + R2, Trial 2, contact assay, dose 0.049 μM, 6 hr) | mortality at 0.2 µM (6 h, read-out: % Mortality R1 + R2, Trial 2, contact assay, dose 0.20 μM, 6 hr) | mortality at 0.78 µM (6 h, read-out: % Mortality R1 + R2, Trial 2, contact assay, dose 0.78 μM, 6 hr) | mortality at 3.125 µM (6 h, read-out: % Mortality R1 + R2, Trial 2, contact assay, dose 3.125 μM, 6 hr) | mortality at 12.5 µM (6 h, read-out: % Mortality R1 + R2, Trial 2, contact assay, dose 12.5 μM, 6 hr) | mortality at 50 µM (6 h, read-out: % Mortality R1 + R2, Trial 2, contact assay, dose 50 μM, 6 hr) | mortality at 0.049 µM (12 h, read-out: % Mortality R1 + R2, Trial 1, contact assay, dose 0.049 μM, 12 hr) | mortality at 0.2 µM (12 h, read-out: % Mortality R1 + R2, Trial 1, contact assay, dose 0.20 μM, 12 hr) | mortality at 0.78 µM (12 h, read-out: % Mortality R1 + R2, Trial 1, contact assay, dose 0.78 μM, 12 hr) | mortality at 3.125 µM (12 h, read-out: % Mortality R1 + R2, Trial 1, contact assay, dose 3.125 μM, 12 hr) | mortality at 12.5 µM (12 h, read-out: % Mortality R1 + R2, Trial 1, contact assay, dose 12.5 μM, 12 hr) | mortality at 0.049 µM (12 h, read-out: % Mortality R1 + R2, Trial 2, contact assay, dose 0.049 μM, 12 hr) | mortality at 3.125 µM (12 h, read-out: % Mortality R1 + R2, Trial 2, contact assay, dose 3.125 μM, 12 hr) | mortality at 12.5 µM (12 h, read-out: % Mortality R1 + R2, Trial 2, contact assay, dose 12.5 μM, 12 hr) | mortality at 0.049 µM (24 h, read-out: % Mortality R1 + R2, Trial 1, contact assay, dose 0.049 μM, 24 hr) | mortality at 0.2 µM (24 h, read-out: % Mortality R1 + R2, Trial 1, contact assay, dose 0.20 μM, 24 hr) | mortality at 0.78 µM (24 h, read-out: % Mortality R1 + R2, Trial 1, contact assay, dose 0.78 μM, 24 hr) | mortality at 3.125 µM (24 h, read-out: % Mortality R1 + R2, Trial 1, contact assay, dose 3.125 μM, 24 hr) | mortality at 12.5 µM (24 h, read-out: % Mortality R1 + R2, Trial 1, contact assay, dose 12.5 μM, 24 hr) | mortality at 0.049 µM (24 h, read-out: % Mortality R1 + R2, Trial 2, contact assay, dose 0.049 μM, 24 hr) | mortality at 0.2 µM (24 h, read-out: % Mortality R1 + R2, Trial 2, contact assay, dose 0.20 μM, 24 hr)
100%: mortality at 50 µM (24 h, read-out: % Mortality R1 + R2, Trial 1, contact assay, dose 50 μM, 24 hr) | mortality at 50 µM (24 h, read-out: % Mortality R1 + R2, Trial 2, contact assay, dose 50 μM, 24 hr) | mortality at 50 µM (48 h, read-out: % Mortality R1 + R2, Trial 1, contact assay, dose 50 μM, 48 hr) | mortality at 12.5 µM (48 h, read-out: % Mortality R1 + R2, Trial 2, contact assay, dose 12.5 μM, 48 hr) | mortality at 50 µM (48 h, read-out: % Mortality R1 + R2, Trial 2, contact assay, dose 50 μM, 48 hr)
30%: mortality at 50 µM (12 h, read-out: % Mortality R1 + R2, Trial 1, contact assay, dose 50 μM, 12 hr) | mortality at 3.125 µM (48 h, read-out: % Mortality R1 + R2, Trial 1, contact assay, dose 3.125 μM, 48 hr)
50%: mortality at 12.5 µM (48 h, read-out: % Mortality R1 + R2, Trial 1, contact assay, dose 12.5 μM, 48 hr)
10%: mortality at 0.2 µM (12 h, read-out: % Mortality R1 + R2, Trial 2, contact assay, dose 0.20 μM, 12 hr) | mortality at 0.78 µM (12 h, read-out: % Mortality R1 + R2, Trial 2, contact assay, dose 0.78 μM, 12 hr) | mortality at 0.78 µM (24 h, read-out: % Mortality R1 + R2, Trial 2, contact assay, dose 0.78 μM, 24 hr) | mortality at 3.125 µM (24 h, read-out: % Mortality R1 + R2, Trial 2, contact assay, dose 3.125 μM, 24 hr) | mortality at 0.049 µM (48 h, read-out: % Mortality R1 + R2, Trial 1, contact assay, dose 0.049 μM, 48 hr) | mortality at 0.78 µM (48 h, read-out: % Mortality R1 + R2, Trial 2, contact assay, dose 0.78 μM, 48 hr)
20%: mortality at 50 µM (12 h, read-out: % Mortality R1 + R2, Trial 2, contact assay, dose 50 μM, 12 hr) | mortality at 0.78 µM (48 h, read-out: % Mortality R1 + R2, Trial 1, contact assay, dose 0.78 μM, 48 hr) | mortality at 0.049 µM (48 h, read-out: % Mortality R1 + R2, Trial 2, contact assay, dose 0.049 μM, 48 hr) | mortality at 3.125 µM (48 h, read-out: % Mortality R1 + R2, Trial 2, contact assay, dose 3.125 μM, 48 hr)
40%: mortality at 0.2 µM (48 h, read-out: % Mortality R1 + R2, Trial 1, contact assay, dose 0.20 μM, 48 hr)
60%: mortality at 12.5 µM (24 h, read-out: % Mortality R1 + R2, Trial 2, contact assay, dose 12.5 μM, 24 hr) | mortality at 0.2 µM (48 h, read-out: % Mortality R1 + R2, Trial 2, contact assay, dose 0.20 μM, 48 hr)
